These results are taken from US6503942B2, “Ethers of O-Desmethyl venlafaxine” (Wyeth, priority 1999, dated 2003).

What is called melting point is the temperature, or range, at which the solid turns liquid.

On to `CN(C)CC(c1ccc(OCOC(=O)C(C)(C)C)cc1)C1(O)CCCCC1.O=C(O)/C=C\C(=O)O` (stereo not shown) [Example 5, {4-[2-(Dimethylamino)-1-(1-hydroxycyclohexyl)ethyl]phenoxy}methyl Pivalate Maleate Salt], for which the melting point lay within 112 to 113 °C.
